Test results reported in PubChem BioAssay AID1963428 (Molecular Pharmacology Branch, DTP, NCI, 2024).
pIC50: −log10 of the molar value.

Test system: 171881-019-R-J1-PDC complex spheroid growth, % test/control
Assay: Anticancer human tumor 171881-019-R-J1-PDC patient-derived invasive breast carcinoma cell line growth inhibition [Asc]
Settings: for pIC50: curve of first compound; for viability, T/C: stronger effect = lower value
Method in brief: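 Complex spheroids combining tumor cells with HUVEC endothelial cells and human MSCs, at 37 degrees C, 5% CO2; agents tested alone or combined, half-log dilutions from at or near clinical Cmax, or 10 microM if Cmax unknown.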

[1] = second compound 0.1 µM, first compound 0.0316 µM
[2] = second compound 0.1 µM, first compound 0.1 µM
[3] = second compound 0.1 µM, first compound 0.316 µM
[4] = second compound 0.1 µM, first compound 1 µM
[5] = second compound 0.316 µM, first compound 0.0316 µM
[6] = second compound 0.316 µM, first compound 0.1 µM
[7] = second compound 0.316 µM, first compound 0.316 µM
[8] = second compound 0.316 µM, first compound 1 µM
[9] = second compound 1 µM, first compound 0.0316 µM
[10] = second compound 1 µM, first compound 0.1 µM
[11] = second compound 1 µM, first compound 0.316 µM
[12] = second compound 1 µM, first compound 1 µM
[13] = second compound 3.16 µM, first compound 0.0316 µM
[14] = second compound 3.16 µM, first compound 0.1 µM
[15] = second compound 3.16 µM, first compound 0.316 µM
[16] = second compound 3.16 µM, first compound 1 µM
[17] = second compound 10 µM, first compound 0.0316 µM
[18] = second compound 10 µM, first compound 0.1 µM
[19] = second compound 10 µM, first compound 0.316 µM
[20] = second compound 10 µM, first compound 1 µM
[21] = second compound 0.1 µM, first compound 0.00316 µM
[22] = second compound 0.1 µM, first compound 0.01 µM
[23] = second compound 0.316 µM, first compound 0.00316 µM
[24] = second compound 0.316 µM, first compound 0.01 µM
[25] = second compound 1 µM, first compound 0.00316 µM
[26] = second compound 1 µM, first compound 0.01 µM
[27] = second compound 3.16 µM, first compound 0.00316 µM
[28] = second compound 3.16 µM, first compound 0.01 µM
[29] = second compound 10 µM, first compound 0.00316 µM
[30] = second compound 10 µM, first compound 0.01 µM
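For viability, T/C in this document: spheroids exposed to compounds for 7 days.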

C=CC(=O)N1CCN(c2nc(=O)n(-c3c(C)ccnc3C(C)C)c3nc(-c4c(O)cccc4F)c(F)cc23)C(C)C1 (stereo not given) + Cc1c(S(C)(=O)=O)c(-c2cc(F)cc(N3CCN(c4ccc(NS(=O)(=O)c5ccc(NC(CCN6CCC(C(=O)OCCCP(=O)(O)O)CC6)CSc6ccccc6)c(S(=O)(=O)C(F)(F)F)c5)cc4)CC3)c2)c(-c2ccc(Cl)cc2)n1C(C)C was tested, and the pIC50 (second compound 0.1 µM) was < 5.00, the pIC50 (second compound 0.316 µM) was < 5.00 and the pIC50 (second compound 1 µM) was < 5.00. The pIC50 (second compound 3.16 µM) was < 5.00, the pIC50 (second compound 10 µM) was < 5.00 and the viability, T/C [1] was 92.3%. The viability, T/C [2] was 111%, the viability, T/C [3] was 100% and the viability, T/C [4] was 86%. For the same compound, the viability, T/C (second compound 0.1 µM, first compound 3.16 µM) was 84.9%, the viability, T/C (second compound 0.1 µM, first compound 10 µM) was 79.6% and the viability, T/C [5] was 128%. It also gave a viability, T/C [6] of 114%, a viability, T/C [7] of 118% and a viability, T/C [8] of 86.9%. The viability, T/C (second compound 0.316 µM, first compound 3.16 µM) was 78.9%, the viability, T/C (second compound 0.316 µM, first compound 10 µM) was 87.7% and the viability, T/C [9] was 119%. For the same compound, the viability, T/C [10] was 123%, the viability, T/C [11] was 125% and the viability, T/C [12] was 104%. For the same compound, the viability, T/C (second compound 1 µM, first compound 3.16 µM) was 78.7%, the viability, T/C (second compound 1 µM, first compound 10 µM) was 90.9% and the viability, T/C [13] was 153%. The viability, T/C [14] was 122%, the viability, T/C [15] was 138% and the viability, T/C [16] was 133%. The viability, T/C (second compound 3.16 µM, first compound 3.16 µM) was 99.2%, the viability, T/C (second compound 3.16 µM, first compound 10 µM) was 99% and the viability, T/C [17] was 165%. For the same compound, the viability, T/C [18] was 186%, the viability, T/C [19] was 165% and the viability, T/C [20] was 187%. The viability, T/C (second compound 10 µM, first compound 3.16 µM) was 133% and the viability, T/C (second compound 10 µM, first compound 10 µM) was 105%.
COc1c(OCCCN2CCOCC2)ccc2c3n(c(=NC(=O)c4cnc(N)nc4)nc12)CCN3 + Cc1c(S(C)(=O)=O)c(-c2cc(F)cc(N3CCN(c4ccc(NS(=O)(=O)c5ccc(NC(CCN6CCC(C(=O)OCCCP(=O)(O)O)CC6)CSc6ccccc6)c(S(=O)(=O)C(F)(F)F)c5)cc4)CC3)c2)c(-c2ccc(Cl)cc2)n1C(C)C showed a pIC50 (second compound 0.1 µM) of 7.66, a pIC50 (second compound 0.316 µM) of 7.86 and a pIC50 (second compound 1 µM) of 8.03. For the same compound, the pIC50 (second compound 3.16 µM) was 8.30, the pIC50 (second compound 10 µM) was 8.34 and the viability, T/C [21] was 148%. It also gave a viability, T/C [22] of 91.5%, a viability, T/C [1] of 30.1% and a viability, T/C [2] of 7.28%. The viability, T/C [3] was 1.11%, the viability, T/C [4] was 0.49% and the viability, T/C [23] was 129%. The viability, T/C [24] was 62.6%, the viability, T/C [5] was 17% and the viability, T/C [6] was 5.34%. It also gave a viability, T/C [7] of 0.77%, a viability, T/C [8] of 0.4% and a viability, T/C [25] of 102%. The viability, T/C [26] was 46.9%, the viability, T/C [9] was 12.7% and the viability, T/C [10] was 3.92%. For the same compound, the viability, T/C [11] was 0.8%, the viability, T/C [12] was 0.9% and the viability, T/C [27] was 64.2%. It also gave a viability, T/C [28] of 28.2%, a viability, T/C [13] of 8.79% and a viability, T/C [14] of 1.69%. It also gave a viability, T/C [15] of 0.26%, a viability, T/C [16] of 0.49% and a viability, T/C [29] of 63.7%. The viability, T/C [30] was 21.6%, the viability, T/C [17] was 9.29% and the viability, T/C [18] was 0.84%. For the same compound, the viability, T/C [19] was 0.24% and the viability, T/C [20] was 1.51%.
With NC(=O)C(=Cn1cnc(-c2cc(C(F)(F)F)cc(C(F)(F)F)c2)n1)c1cncnc1 + Cc1c(S(C)(=O)=O)c(-c2cc(F)cc(N3CCN(c4ccc(NS(=O)(=O)c5ccc(NC(CCN6CCC(C(=O)OCCCP(=O)(O)O)CC6)CSc6ccccc6)c(S(=O)(=O)C(F)(F)F)c5)cc4)CC3)c2)c(-c2ccc(Cl)cc2)n1C(C)C the pIC50 (second compound 0.1 µM) was 7.60, the pIC50 (second compound 0.316 µM) was 7.73 and the pIC50 (second compound 1 µM) was 7.76. For the same compound, the pIC50 (second compound 3.16 µM) was 7.87, the pIC50 (second compound 10 µM) was 8.03 and the viability, T/C (second compound 0.1 µM, first compound 0.000949 µM) was 102%. It also gave a viability, T/C (second compound 0.1 µM, first compound 0.003 µM) of 108%, a viability, T/C (second compound 0.1 µM, first compound 0.00949 µM) of 116% and a viability, T/C (second compound 0.1 µM, first compound 0.03 µM) of 40.1%. For the same compound, the viability, T/C (second compound 0.1 µM, first compound 0.0949 µM) was 4.69%, the viability, T/C (second compound 0.1 µM, first compound 0.3 µM) was 1.77% and the viability, T/C (second compound 0.316 µM, first compound 0.000949 µM) was 111%. It also gave a viability, T/C (second compound 0.316 µM, first compound 0.003 µM) of 159%, a viability, T/C (second compound 0.316 µM, first compound 0.00949 µM) of 84.5% and a viability, T/C (second compound 0.316 µM, first compound 0.03 µM) of 28.7%. For the same compound, the viability, T/C (second compound 0.316 µM, first compound 0.0949 µM) was 2.73%, the viability, T/C (second compound 0.316 µM, first compound 0.3 µM) was 1.39% and the viability, T/C (second compound 1 µM, first compound 0.000949 µM) was 144%. It also gave a viability, T/C (second compound 1 µM, first compound 0.003 µM) of 135%, a viability, T/C (second compound 1 µM, first compound 0.00949 µM) of 86.1% and a viability, T/C (second compound 1 µM, first compound 0.03 µM) of 16.6%. It also gave a viability, T/C (second compound 1 µM, first compound 0.0949 µM) of 2.27%, a viability, T/C (second compound 1 µM, first compound 0.3 µM) of 1.86% and a viability, T/C (second compound 3.16 µM, first compound 0.000949 µM) of 171%. For the same compound, the viability, T/C (second compound 3.16 µM, first compound 0.003 µM) was 151%, the viability, T/C (second compound 3.16 µM, first compound 0.00949 µM) was 65.4% and the viability, T/C (second compound 3.16 µM, first compound 0.03 µM) was 14.7%. For the same compound, the viability, T/C (second compound 3.16 µM, first compound 0.0949 µM) was 1.2%, the viability, T/C (second compound 3.16 µM, first compound 0.3 µM) was 0.46% and the viability, T/C (second compound 10 µM, first compound 0.000949 µM) was 183%. It also gave a viability, T/C (second compound 10 µM, first compound 0.003 µM) of 135%, a viability, T/C (second compound 10 µM, first compound 0.00949 µM) of 47.7% and a viability, T/C (second compound 10 µM, first compound 0.03 µM) of 13.5%. For the same compound, the viability, T/C (second compound 10 µM, first compound 0.0949 µM) was 1.03% and the viability, T/C (second compound 10 µM, first compound 0.3 µM) was 0.35%.
With NC1CCC(NC2CC2c2ccccc2)CC1 (stereo not given) + Cc1c(S(C)(=O)=O)c(-c2cc(F)cc(N3CCN(c4ccc(NS(=O)(=O)c5ccc(NC(CCN6CCC(C(=O)OCCCP(=O)(O)O)CC6)CSc6ccccc6)c(S(=O)(=O)C(F)(F)F)c5)cc4)CC3)c2)c(-c2ccc(Cl)cc2)n1C(C)C the pIC50 (second compound 0.1 µM) was < 7.00, the pIC50 (second compound 0.316 µM) was < 7.00 and the pIC50 (second compound 1 µM) was < 7.00. The pIC50 (second compound 3.16 µM) was < 7.00, the pIC50 (second compound 10 µM) was < 7.00 and the viability, T/C (second compound 0.1 µM, first compound 0.000316 µM) was 85.6%. The viability, T/C (second compound 0.1 µM, first compound 0.001 µM) was 83%, the viability, T/C [21] was 85.6% and the viability, T/C [22] was 81%. For the same compound, the viability, T/C [1] was 88.7%, the viability, T/C [2] was 91.8% and the viability, T/C (second compound 0.316 µM, first compound 0.000316 µM) was 99.9%. The viability, T/C (second compound 0.316 µM, first compound 0.001 µM) was 107%, the viability, T/C [23] was 90.5% and the viability, T/C [24] was 88.2%. It also gave a viability, T/C [5] of 96%, a viability, T/C [6] of 84.1% and a viability, T/C (second compound 1 µM, first compound 0.000316 µM) of 97.6%. The viability, T/C (second compound 1 µM, first compound 0.001 µM) was 101%, the viability, T/C [25] was 91.5% and the viability, T/C [26] was 82.6%. It also gave a viability, T/C [9] of 84%, a viability, T/C [10] of 92.4% and a viability, T/C (second compound 3.16 µM, first compound 0.000316 µM) of 134%. For the same compound, the viability, T/C (second compound 3.16 µM, first compound 0.001 µM) was 99.3%, the viability, T/C [27] was 93% and the viability, T/C [28] was 88.3%. It also gave a viability, T/C [13] of 88.1%, a viability, T/C [14] of 104% and a viability, T/C (second compound 10 µM, first compound 0.000316 µM) of 154%. The viability, T/C (second compound 10 µM, first compound 0.001 µM) was 127%, the viability, T/C [29] was 111% and the viability, T/C [30] was 115%. It also gave a viability, T/C [17] of 121% and a viability, T/C [18] of 92.3%.
